This is an account of results in patent US20020132853A1, “Capsaicin receptor ligands” (priority 2000, published 2002).

This test has as its target T1, human capsaicin receptor (Homo sapiens, UniProt Q8NER1).
T1 construct: expression consrtuct encoding the full length human capsaicin receptor; expressed in transfected cells
As to the kind of experiment: Antagonist assay for Capsaicin receptor mediated calcium mobilization. Particulars: Table III, read-out: EC50 (the source's name). It is filed as cell-based. The method, then:
Calcium Mobilization Assay
Cells transfected with expression plasmids (as described in Example 10) and thereby expressing the human capsaicin receptor are seeded and grown to 70-90% confluency in FALCON black-walled, clear-bottomed 96-well plates (#3904, BECTON-DICKINSON, Franklin Lakes, N.J.) . The culture media are emptied from the 96 well plates and FLUO-3 AM calcium sensitive dye (Molecular Probes, Eugene, OR) is added to each well (dye solution: 1 mg FLUO-3 AM, 440 uL DMSO and 440 ul 20% pluronic acid in DMSO, diluted 1:4, 50 ul diluted solution per well). Plates are covered with aluminum foil and incubated at 37° C for 1-2 hours in an environment containing 5% CO2. After the incubation the dye is emptied from the plates, and the cells are washed once with Krebs-Ringer HEPES (KRH) buffer (25 mM HEPES, 5 mM KCl, 0.96 mM NaH2PO4, 1 MM MgSO4, 2 mM CaCl2, 5 mM glucose, 1 mM probenecid, pH 7.4), and resuspended in KRH buffer.
Agonist (e.g., olvanil, capsaicin, or RTX)-induced calcium mobilization is monitored using either FLUOROSKAN ASCENT (Labsystems, Franklin, Mass.) or FLIPR (fluorometric imaging plate reader system, Molecular Devices, Sunnyvale, Calif.) instruments. Similarly, varying concentrations of the antagonists ruthenium red or capsazepine are added to cells concurrently with agonist (e.g., 25-50 nM capsaicin). For agonist-induced calcium responses, data obtained between 30 and 60 seconds after agonist application are used to generate the EC50 values. […] software (Synergy Software, Reading, Pa.) was utilized to fit the data to the equation: […]
to determine the EC50 for the response. In this equation, y is the maximum fluorescence signal, x is the concentration of the agonist or antagonist, a is the Emax, b corresponds to the EC50 or IC50 value, and finally, c is the Hill coefficient.
Assay for Determination of Capsaicin Receptor Antagonist Effects
In order to measure the ability of a test compound to antagonize (inhibit) the response of cells expressing capsaicin receptors to capsaicin or other vanilloid agonist, the EC50 of capsaicin is first determined.
An additional 20 ul of KRH buffer and 1 ul DMSO is added to each well of cells, prepared as described above. 100 ul capsaicin in KRH buffer is automatically transferred by the FLIPR instrument to each well.
Test compounds are dissolved in DMSO, diluted in 20 ul KRH buffer so that the final concentration of test compounds in the assay well is between 1 uM and 5 uM, and added to cells prepared as described above. The 96 well plates containing prepared cells and test compounds are incubated in the dark, at room temperature for 0.5-6 hours. It is important that the incubation not continue beyond 6 hours. Just prior to determining the fluorescence response, 100 ul capsaicin in KRH buffer at twice the EC50 concentration determined from the concentration response curve is automatically added by the FLIPR instrument to each well of the 96 well plate for a final sample volume of 200 ul and a final capsaicin concentration equal to the EC50. The final concentration of test compounds in the assay wells is between 1 uM and 5 uM. […] Antagonists of the capsaicin receptor decrease this response by about 20%, preferably by about 50%, and most preferably by at least 80% as compared to matched control. The concentration of antagonist required to provide a 50% decrease is the EC50 for the antagonist (also referred to as the IC50).
In general terms: A change in cytosolic calcium serves as a functional read-out for many receptors and channels.

Structures are written as SMILES. A value given as a limit tells only on which side of the number the result lay.

T1 sequence (Q8NER1 whole entry): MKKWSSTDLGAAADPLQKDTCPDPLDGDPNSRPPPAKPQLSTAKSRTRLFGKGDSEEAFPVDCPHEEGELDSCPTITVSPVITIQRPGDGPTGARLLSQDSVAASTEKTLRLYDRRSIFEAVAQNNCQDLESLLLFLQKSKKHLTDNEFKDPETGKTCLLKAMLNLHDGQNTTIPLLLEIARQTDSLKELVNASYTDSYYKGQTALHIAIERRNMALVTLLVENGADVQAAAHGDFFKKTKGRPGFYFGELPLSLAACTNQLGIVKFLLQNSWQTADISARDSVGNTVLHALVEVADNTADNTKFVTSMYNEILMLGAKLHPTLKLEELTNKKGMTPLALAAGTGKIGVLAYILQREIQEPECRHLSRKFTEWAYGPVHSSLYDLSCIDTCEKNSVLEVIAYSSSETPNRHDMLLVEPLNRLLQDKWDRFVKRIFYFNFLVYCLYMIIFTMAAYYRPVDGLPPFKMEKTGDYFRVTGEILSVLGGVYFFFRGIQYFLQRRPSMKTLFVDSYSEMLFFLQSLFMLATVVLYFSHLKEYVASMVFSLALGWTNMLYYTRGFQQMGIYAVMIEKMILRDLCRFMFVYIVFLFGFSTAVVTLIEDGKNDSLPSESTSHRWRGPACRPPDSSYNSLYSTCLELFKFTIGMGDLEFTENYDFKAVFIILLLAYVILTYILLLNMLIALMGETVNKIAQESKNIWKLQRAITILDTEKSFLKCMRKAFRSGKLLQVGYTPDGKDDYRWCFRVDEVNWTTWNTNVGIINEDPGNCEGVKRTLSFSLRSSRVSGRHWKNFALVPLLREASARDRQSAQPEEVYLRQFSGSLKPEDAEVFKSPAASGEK

Regarding `C[C@@H]1CN(c2ncccc2Cl)CCN1C(=O)Nc1ccc(C2=CCOCC2)cc1` [Compound 48, (2R)-4-(3-chloropyridin-2-yl)-N-[4-(3,6-dihydro-2H-pyran-4-yl)phenyl]-2-methylpiperazine-1-carboxamide], the IC50 was < 1000 nM.
With `C[C@@H]1CN(c2ncccc2Cl)CCN1C(=O)Nc1ccc(C2CCOCC2)cc1` [Compound 49, (2R)-4-(3-chloropyridin-2-yl)-2-methyyl-N-(4-tetrahydro-2H-pyran-4-ylphenyl)piperazne-1-carboxamide] the figure was < 1000 nM; with `C[C@@H]1CN(c2ncccc2Cl)CCN1C(=O)Nc1ccc(C2(O)CCOCC2)cc1` [Compound 50, (2R)-4-(3-chloropyridin-2-yl)-N-[4-(4-hydroxytetrahydro-2H-pyran-4-yl)phenyl]-2-methylpiperazine-1-carboxamide], < 1000 nM; with `C[C@@H]1CN(c2ncccc2C(F)(F)F)CCN1C(=O)Nc1ccc(C2(O)CCOCC2)cc1` [Compound 51, (2R)-N-[4-(4-hydroxytetrahydro-2H-pyran-4-yl)phenyl]-2-methyl-4-[3-(trifluoromethyl)pyridin-2-yl]piperazine-1-carboxamide], < 1000 nM.
Under `Cc1nc(-c2ccc(NC(=O)N3CCN(c4ncccc4Cl)C[C@H]3C)cc2)cs1` [Compound 52, (2R)-4-(3-chloropyridin-2-yl)-2-methyl-N-[4-(2-methyl-1,3-thiazol-4-yl)phenyl]piperazine-1-carboxamide] stands < 1000 nM.
With `CCc1nc(-c2ccc(NC(=O)N3CCN(c4ncccc4Cl)C[C@H]3C)cc2)cs1` [Compound 53, (2R)-4-(3-chloropyridin-2-yl)-N-[4-(2-ethyl-1,3-thiazol-4-yl)phenyl]-2-methylpiperazine-1-carboxamide] the figure was < 1000 nM; with `COCC(C)(C)c1ccc(NC(=O)N2CCN(c3ncccc3Cl)C[C@H]2C)cc1` [Compound 54, (2R)-4-(3-chloropyridin-2-yl)-N-[4-(2-methoxy-1,1-dimethylethyl)phenyl]-2-methylpiperazine-1-carboxamide], < 1000 nM.
On to `COCC(C)(C)c1ccc(NC(=O)N2CCN(c3ncccc3C(F)(F)F)C[C@H]2C)cc1` [Compound 55, (2R)-N-[4-(2-methoxy-1,1-dimethylethyl)phenyl]-2-methyl-4-[3-(trifluoromethyl)pyridin-2-yl]piperazine-1-carboxamide], for which the IC50 was < 1000 nM.
With `C[C@@H]1CN(c2ncccc2Cl)CCN1C(=O)Nc1ccc(C(C)(C)C#N)cc1` [Compound 56, (2R)-4-(3-chloropyridin-2-yl)-N-[4-(1-cyano-1-methylethyl)phenyl]-2-methylpiperazine-1-carboxamide] the figure was < 1000 nM; with `C[C@@H]1CN(c2ncccc2C(F)(F)F)CCN1C(=O)Nc1ccc(C(C)(C)C#N)cc1` [Compound 57, (2R)-N-[4-(1-cyano-1-methylethyl)phenyl]-2-methyl-4-[3-(trifluoromethyl)pyridin-2-yl]piperazine-1-carboxamide], < 1000 nM; with `CCC1CN(c2ncccc2Cl)CCN1C(=O)Nc1ccc(C(C)(C)C)cc1` (centres unmarked) [Compound 58, N-(4-tert-butylphenyl)-4-(3-chloropyridin-2-yl)-2-ethylpiperazine-1-carboxamide], < 1000 nM.
Under `CCC1CN(c2ncccc2Cl)CCN1C(=O)Nc1ccc(C(F)(F)F)cc1` (centres unmarked) [Compound 59, 4-(3-chloropyridin-2-yl)-2-ethyl-N-[4-(trifluoromethyl)phenyl]piperazine-1-carboxamide] stands < 1000 nM.
With `CCC1CN(c2ncccc2Cl)CCN1C(=O)Nc1ccc(C(C)C)cc1` (centres unmarked) [Compound 60, 4-(3-chloropyridin-2-yl)-2-ethyl-N-[4-isopropylphenyl)piperazine-1-carboxamide] the figure was < 1000 nM.
As for `CCC1CN(c2ncccc2C(F)(F)F)CCN1C(=O)Nc1ccc(C(C)(C)C)cc1` (centres unmarked) [Compound 61, N-(4-tert-butylphenyl)-2-ethyl-4-[3-(trifluoromethyl)pyridin-2-yl]piperazine-1-carboxamide], the IC50 is < 1000 nM.
Under `CCC1CN(c2ncccc2C(F)(F)F)CCN1C(=O)Nc1ccc(C(F)(F)F)cc1` (centres unmarked) [Compound 62, 2-ethyl-N-[4-(trifluoromethyl)phenyl]-4-[3-(trifluoromethyl)pyridin-2-yl]piperazine-1-carboxamide] stands < 1000 nM; under `CCC1CN(c2ncccc2C(F)(F)F)CCN1C(=O)Nc1ccc(C(C)C)cc1` (centres unmarked) [Compound 63, 2-ethyl-N-(4-isopropylphenyl)-4-[3-(trifluoromethyl)pyridin-2-yl]piperazine-1-carboxamide], < 1000 nM.
Under `CC(C)(C)c1ccc(NC(=O)N2CCN(c3ncccc3Cl)CC2C(C)(C)C)cc1` (centres unmarked) [Compound 64, 2-tert-butyl-N-(4-tert-butylphenyl)-4-(3-chloropyridin-2-yl)piperazine-1-carboxamide] stands < 1000 nM; under `CC(C)(C)C1CN(c2ncccc2C(F)(F)F)CCN1C(=O)Nc1ccc(C(F)(F)F)cc1` (centres unmarked) [Compound 68, 2-tert-butyl-N-[4-(trifluoromethyl)phenyl]-4-[3-(trifluoromethyl)pyridin-2-yl]piperazine-1-carboxamide], < 1000 nM.
Under `CC(C)C1CN(c2ncccc2Cl)CCN1C(=O)Nc1ccc(C(C)(C)C)cc1` (centres unmarked) [Compound 69, N-(4-tert-butylphenyl)-4-(3-chloropyridin-2-yl)-2-isopropylpiperazine-1-carboxamide] stands < 1000 nM; under `CC(C)C1CN(c2ncccc2C(F)(F)F)CCN1C(=O)Nc1ccc(C(C)(C)C)cc1` (centres unmarked) [Compound 72, N-(4-tert-butylphenyl)-2-isopropylk-4-[3-(trifluoromethyl)pyridin-2-yl]piperazine-1-carboxamide], < 1000 nM; under `CC(C)C1CN(c2ncccc2C(F)(F)F)CCN1C(=O)Nc1ccc(C(F)(F)F)cc1` (centres unmarked) [Compound 73, 2-isopropyl-N-[4-(trifluoromethyl)phenyl]-4-[3-(trifluoromethyl)pyridin-2-yl]piperazine-1-carboxamide], < 1000 nM.
Consider `CC(C)c1ccc(NC(=O)N2CCN(c3ncccc3C(F)(F)F)CC2C(C)C)cc1` (centres unmarked) [Compound 74, 2-isopropyl-N-(4-isopropylphenyl)-4-[3-(trifluoromethyl)pyridin-2-yl]piperazine-1-carboxamide], for which the IC50 is < 1000 nM.
With `C[C@@H]1CN(c2ncccc2F)CCN1C(=O)Nc1ccc(C(F)(F)F)cc1` [Compound 75, (2R)-4-(3-fluoropyridin-2-yl)-2-methyl-N-[4-(trifluoromethyl)phenyl]piperazine-1-carboxamide] the figure was < 1000 nM; with `CC(C)c1ccc(NC(=O)N2CCN(c3ncccc3F)C[C@H]2C)cc1` [Compound 77, (2R)-4-(3-fluoropyridin-2-yl)-N-(4-isopropylphenyl)-2-methylpiperazine-1-carboxamide], < 1000 nM.
Under `C[C@@H]1CN(c2ncccc2F)CCN1C(=O)Nc1ccc(C2CCCCC2)cc1` [Compound 78, (2R)-N-(4-cyclohexylphenyl)-4-(3-fluoropyridin-2-yl)-2-methylpiperazine-1-carboxamide] stands < 1000 nM; under `C[C@@H]1CN(c2ncccc2F)CCN1C(=O)Nc1ccc(C2CCCC2)cc1` [Compound 79, (2R)-N-(4-cyclopentylphenyl)-4-(3-fluoropyridin-2-yl)-2-methylpiperazine-1-carboxamide], < 1000 nM.
